pKi: −log10 of the molar value. Bounds are passed on as bounds.

Chain of Hepatitis C virus serine protease, NS3/NS4A (D2K2A8 whole entry): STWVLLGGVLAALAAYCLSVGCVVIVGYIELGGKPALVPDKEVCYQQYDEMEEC
Chain of Hepatitis C virus serine protease, NS3/NS4A (A3EZI9 whole entry): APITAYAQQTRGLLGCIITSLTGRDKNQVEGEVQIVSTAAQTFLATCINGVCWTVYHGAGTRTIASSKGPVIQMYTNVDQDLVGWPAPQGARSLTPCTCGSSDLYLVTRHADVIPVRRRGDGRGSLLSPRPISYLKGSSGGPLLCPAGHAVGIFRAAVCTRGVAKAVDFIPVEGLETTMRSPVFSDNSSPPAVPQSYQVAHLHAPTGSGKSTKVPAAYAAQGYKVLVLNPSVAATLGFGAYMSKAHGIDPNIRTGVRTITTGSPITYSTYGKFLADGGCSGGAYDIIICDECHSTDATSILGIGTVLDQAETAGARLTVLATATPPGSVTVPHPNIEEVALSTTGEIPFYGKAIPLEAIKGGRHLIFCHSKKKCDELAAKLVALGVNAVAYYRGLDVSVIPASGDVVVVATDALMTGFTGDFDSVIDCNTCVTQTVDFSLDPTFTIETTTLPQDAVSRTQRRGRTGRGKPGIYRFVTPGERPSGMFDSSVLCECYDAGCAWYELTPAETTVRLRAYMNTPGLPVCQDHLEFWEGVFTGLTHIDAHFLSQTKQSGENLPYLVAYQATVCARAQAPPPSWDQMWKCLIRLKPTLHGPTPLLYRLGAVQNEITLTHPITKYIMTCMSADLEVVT

This assay addresses Hepatitis C virus serine protease, NS3/NS4A (Hepatitis C virus, UniProt A3EZI9+D2K2A8). Description: Inhibition of HCV genotype H 1a NS3/4A protease. In kind it is protein-complex assay.
On to `CC(C)(C)NC(=O)NC(C(=O)N1C[C@H]2[C@@H](C1C(=O)N[C@@H](CC1CCC1)C(=O)C(N)=O)C2(F)F)C(C)(C)C` (stereo partly drawn), for which the negative logarithm of the Ki (pKi) is 6.85. Under `CC(C)(C)OC(=O)NC(C(=O)N1C[C@H]2[C@@H](C1C(=O)N[C@@H](CC1CCCC1)C(=O)C(N)=O)C2(C)C)C1CCCCC1` (stereo partly drawn) stands 6.82; under `CC(C)C[C@H](NC(=O)C(NC(=O)OC(C)(C)C)C(C)(C)C)C(=O)N[C@@H](CC1CCC1)C(=O)C(N)=O` (stereo partly drawn), 4.82. Under `CC(C)[C@H](NC(=O)NC(C)(C)C)C(=O)N1C[C@H]2[C@@H](C1C(=O)N[C@@H](CC1CC1)C(=O)C(N)=O)C2(C)C` (stereo partly drawn) stands 7.00; under `CCCC[C@H](NC(=O)C1[C@@H]2[C@H](CN1C(=O)C(NC(=O)OC(C)(C)C)C(C)(C)C)C2(C)C)C(=O)C(N)=O` (stereo partly drawn), 6.44; under `CCC[C@H](NC(=O)C1[C@@H]2[C@H](CN1C(=O)C(NC(=O)OC(C)(C)C)C(C)(C)C)C2(C)C)C(=O)C(N)=O` (stereo partly drawn), 6.66. Under `CC(C)(C)NC(=O)NC(C(=O)N1C[C@H]2[C@@H](C1C(=O)N[C@@H](CC1CC1(F)F)C(=O)C(N)=O)C2(C)C)C(C)(C)C` (stereo partly drawn) stands 7.30; under `COC(=O)NC(C(=O)N1C[C@H]2[C@@H](C1C(=O)N[C@@H](CC1CC1)C(=O)C(N)=O)C2(C)C)C1CCCCC1` (stereo partly drawn), 6.10; under `CC(C)(C)NC(=O)NC(C(=O)N1C[C@@H]2OC(C)(C)C[C@@H]2C1C(=O)N[C@@H](CC1CCC1)C(=O)C(N)=O)C(C)(C)C` (stereo partly drawn), 6.30. `CC(C)C[C@H](NC(=O)C1[C@@H]2[C@H](CN1C(=O)C(NC(=O)OC(C)(C)C)C1CCCCC1)C2(C)C)C(=O)C(N)=O` (stereo partly drawn) gave a pKi of 6.40. For `CC(C)(C)OC(=O)NC(C(=O)N1C[C@H]2[C@@H](C1C(=O)N[C@@H](CC1CC1)C(=O)C(N)=O)C2(C)C)C1CCCCC1` (stereo partly drawn) the value was 7.60; for `CCOC(=O)NC(C(=O)N1C[C@H]2[C@@H](C1C(=O)N[C@@H](CC1CC1)C(=O)C(N)=O)C2(C)C)C1CCCCC1` (stereo partly drawn), 6.64; for `CC(C)(C)NC(=O)NC(C(=O)N1C[C@@H]2OC(C)(C)[C@@H]2C1C(=O)N[C@@H](CC1CC1)C(=O)C(N)=O)C(C)(C)C` (stereo partly drawn), 6.02. For `CCC[C@H](NC(=O)C1[C@@H]2[C@H](CN1C(=O)C(NC(=O)NC(C)(C)C)C1CCCCC1)C2(C)C)C(=O)C(N)=O` (stereo partly drawn) the value was 7.27; for `CC(C)(C)C[C@H](NC(=O)C1[C@@H]2[C@H](CN1C(=O)C(NC(=O)OC(C)(C)C)C(C)(C)C)C2(C)C)C(=O)C(N)=O` (stereo partly drawn), less than 5.48. For `CC(C)(C)OC(=O)NC(C(=O)N1C[C@H]2[C@@H](C1C(=O)NC(C(=O)C(N)=O)C(C)(C)C)C2(C)C)C(C)(C)C` (stereo partly drawn) the value was less than 4.16. For `CCC(NC(=O)C1[C@@H]2[C@H](CN1C(=O)C(NC(=O)OC(C)(C)C)C1CCCCC1)C2(C)C)C(=O)C(N)=O` (stereo partly drawn), the pKi is 6.13.

`CCC[C@H](NC(=O)C1[C@@H]2[C@H](CN1C(=O)C(NC(=O)OC(C)(C)C)C1CCCCC1)C2(C)C)C(=O)C(N)=O` (stereo partly drawn): the pKi was 7.00.

`CC(C)C[C@H](NC(=O)C1[C@@H]2[C@H](CN1C(=O)C(NC(=O)OC(C)(C)C)C(C)(C)C)C2(C)C)C(=O)C(N)=O` (stereo partly drawn) gave a pKi of 6.32. For `CC(C)(C)NC(=O)NC(C(=O)N1C[C@H]2[C@@H](C1C(=O)NC(C(=O)C(N)=O)C1CC1)C2(C)C)C(C)(C)C` (stereo partly drawn) the value was 5.80. For `CC(C)(C)NC(=O)NC(C(=O)N1C[C@H]2[C@@H](C1C(=O)NC(C(=O)C(N)=O)C1CCC1)C2(C)C)C(C)(C)C` (stereo partly drawn) the value was 7.00; for `CC(C)(C)NC(=O)NC(C(=O)N1CCC[C@H]1C(=O)N[C@@H](CC1CCC1)C(=O)C(N)=O)C(C)(C)C` (stereo partly drawn), 5.30. `CC(C)(C)NC(=O)NC(C(=O)N1C[C@H]2[C@@H](C1C(=O)N[C@@H](CC1CCC1)C(=O)C(N)=O)C2(C)C)C(C)(C)C` (stereo partly drawn) gave a pKi of 7.85. Under `CC(C)(C)NC(=O)NC(C(=O)N1C[C@H]2[C@@H](C1C(=O)NC(C(=O)C(N)=O)C1CCCC1)C2(C)C)C(C)(C)C` (stereo partly drawn) stands 5.74; under `CC(C)(C)OC(=O)NC(C(=O)N1C[C@H]2[C@@H](C1C(=O)N[C@@H](CC1CCCCC1)C(=O)C(N)=O)C2(C)C)C1CCCCC1` (stereo partly drawn), less than 4.92.

The compound `CC(=O)N[C@H](C(=O)NC(C(=O)N1C[C@H]2[C@@H](C1C(=O)N[C@@H](CC1CC1)C(=O)C(N)=O)C2(C)C)C1CCCCC1)C(C)C` (stereo partly drawn) showed a pKi of 7.17.

Consider `CC(=O)N[C@H](C(=O)NC(C(=O)N1C[C@H]2[C@@H](C1C(=O)N[C@@H](CC1CCC1)C(=O)C(N)=O)C2(C)C)C(C)(C)C)C(C)C` (stereo partly drawn), for which the negative logarithm of the Ki (pKi) is 7.42. As for `CC(C)(C)NC(=O)NC(C(=O)N1C[C@H]2[C@@H](C1C(=O)N[C@@H](CC1CCC1)C(=O)C(N)=O)C2(Cl)Cl)C(C)(C)C` (stereo partly drawn), the pKi is 7.72. Under `CC(C)(C)NC(=O)NC(C(=O)N1C[C@H]2[C@@H](C1C(=O)N[C@@H](CC1CC(F)(F)C1)C(=O)C(N)=O)C2(C)C)C(C)(C)C` (stereo partly drawn) stands 6.94; under `CC(C)(C)NC(=O)NC(C(=O)N1C[C@H]2[C@@H](C1C(=O)N[C@@H](CC1CC1)C(=O)C(N)=O)C2(C)C)C(C)(C)C` (stereo partly drawn), 7.89; under `CC(C)OC(=O)NC(C(=O)N1C[C@H]2[C@@H](C1C(=O)N[C@@H](CC1CC1)C(=O)C(N)=O)C2(C)C)C1CCCCC1` (stereo partly drawn), 7.22. For `CC(C)(C)NC(=O)NC(C(=O)N1C[C@H]2[C@@H](C1C(=O)N[C@@H](CC1CC1)C(=O)C(N)=O)C2(C)C)C1CCCCC1` (stereo partly drawn) the value was 7.30; for `CC(C)(C)OC(=O)NC(C(=O)N1C[C@H]2[C@@H](C1C(=O)N[C@@H](CC1CCC1)C(=O)C(N)=O)C2(C)C)C1CCCCC1` (stereo partly drawn), 7.60.

As usually defined, the pKi is −log10 of the Ki, conventionally taken in molar units. A lower pKi goes with a high Ki.

(Values after ChEMBL document CHEMBL1139867, “Discovery of the HCV NS3/4A protease inhibitor (1R,5S)-N-[3-amino-1-(cyclobutylmethyl)-2,3-dioxopropyl]-3- [2(S)-[[[(1,1-dimethylethyl)amino]carbonyl]amino]-3,3-dimethyl-1-oxobutyl]- 6,6-dimethyl-3-azabicyclo[3.1.0]hexan-2(S)-carboxamide (Sch 503034) II. Key steps in structure-based optimization” (J Med Chem, 2007).)
